In patent US7049437B2, “Synthetic process and crystal form of condensed imidazopyridine derivatives” (Shionogi & Co., Ltd., priority 2000, dated 2006):
Where a name gives a salt, the structure may show the parent alone.

Legend:
[1] = Stability to heat (crystals kept sealed at 40° C., relative humidity 75%); assay type: physicochemical; details: relative humidity of 75%, 6 months, sealed glass container, phosphate monohydrate
Description: Prism crystals and needle crystals of Compound (Ia) were used for samples. About 25 mg of each crystal was put in a small glass container with polyethylene cap. Containers were capped, sealed with PARAFILM and kept at 40° C., relative humidity of 75% for 6 months.

[2] = Stability to light (fluorescent lamp exposure; appearance and HPLC remaining rate); assay type: physicochemical; details: for appearance / remaining rate (%) / appearance change under light exposure: phosphate monohydrate; for remaining rate (%): HPLC content vs reference kept at −20° C.; for appearance change under light exposure: summary of Table 2
Description: In the following Experiments, contents of Compound (I) were determined by HPLC under the following conditions. • Device: WATERS 510, 481, 712 WISP, 741, FD20A or WATERS 510, 486, 712 WISP, 741, FD20A • Column: YMC-packed column AM-302 S-5 120A ODS (4.6 mm φ×150 mm) • Column temperature: room temperature • Mobile phase: methanol/water/TFA=200/800/1 (v/v) • Flow rate: 1.0 ml/min • Wave length: 230 nm • Concentration: 5–85 μg/ml • Injection Volume: 15 μl
After samples were prepared in the same manner of Experiment 1 and sealed, they were kept under 1800 Lux exposure (16 hours exposure per day of a fluorescent lamp, 28800 Lux*hr/day) or under 10000 Lux exposure (continuous exposure of a fluorescent lamp, 240000 Lux*hr/day, average temperature 30±3° C.). As a standard reference sample, each of crystals was put in a sealed container and kept at −20° C. The content of crystals were determined by the absolute calibration curve method using HPLC under the above conditions.

Structure (SMILES) | melting point [°C] | appearance transition [1] | appearance ([2]; 1800 Lux (16 hours exposure per day), 1 month) | remaining rate (%) ([2]; 1800 Lux, 1 month) | remaining rate (%) ([2]; 1800 Lux, 2 months) | remaining rate (%) ([2]; 1800 Lux, 3 months) | remaining rate (%) ([2]; 1800 Lux, 4 months) | appearance ([2]; 10000 Lux (continuous exposure, 30±3° C.), 1 week) | appearance ([2]; 10000 Lux (continuous exposure, 30±3° C.), 3 weeks) | remaining rate (%) ([2]; 10000 Lux, 1 week) | remaining rate (%) ([2]; 10000 Lux, 2 weeks) | remaining rate (%) ([2]; 10000 Lux, 3 weeks) | remaining rate under light exposure ([2]; after 3 months) | appearance change under light exposure [2] | appearance ([2]; 1800 Lux (16 hours exposure per day), 3 months) | appearance ([2]; 10000 Lux (continuous exposure, 30±3° C.), 2 weeks)
c1cc(-c2nc3c4c(ncc3[nH]2)CCOC4)no1 (as salt: phosphate) (hydrate or solvate) [Needle crystals, 2-(3-isoxazolyl)-3,6,7,9-tetrahydroimidazo[4,5-d]pyrano[4,3-b]pyridine phosphate monohydrate] | 234 to 236 |  |  |  |  |  |  |  |  |  |  |  |  |  |  | 
c1cc(-c2nc3c4c(ncc3[nH]2)CCOC4)no1 (hydrate or solvate) [Example 1, 2-(3-isoxazolyl)-3,6,7,9-tetrahydroimidazo[4,5-d]pyrano[4,3-b]pyridine] | > 300 |  |  |  |  |  |  |  |  |  |  |  |  |  |  | 
c1cc(-c2nc3c4c(ncc3[nH]2)CCOC4)no1 [Needle crystals, 2-(3-isoxazolyl)-3,6,7,9-tetrahydroimidazo[4,5-d]pyrano[4,3-b]pyridine phosphate monohydrate] |  | changed its color to pale yellow | ± or + | 98.6 | 98.3 | 96.9 | 97.0 | ± or + | + or ++ | 99.3 | 98.0 | 97.4 | decreased | changed the color to yellow |  | 
c1cc(-c2nc3c4c(ncc3[nH]2)CCOC4)no1 [Prism crystals, 2-(3-isoxazolyl)-3,6,7,9-tetrahydroimidazo[4,5-d]pyrano[4,3-b]pyridine phosphate monohydrate] |  | not observed appearance transition |  | 100.0 | 99.9 | 100.1 | 100.1 |  |  | 99.5 | 99.7 | 99.2 |  | scarcely changed appearance | − or ± | ± or +
